From ChEMBL document CHEMBL5576135, “Discovery of Indolo[3,2-c]isoquinoline Derivatives as Novel Top1/2 Dual Inhibitors with Orally Efficacious Antitumor Activity and Low Toxicity” (J Med Chem, 2024) come the findings set out here.

Active and inactive are the calls of the source. No cut-off for these calls is given here.

For assay [1], the target named is T1, DNA topoisomerase 1 (Homo sapiens) (UniProt P11387).
T1 sequence (whole entry): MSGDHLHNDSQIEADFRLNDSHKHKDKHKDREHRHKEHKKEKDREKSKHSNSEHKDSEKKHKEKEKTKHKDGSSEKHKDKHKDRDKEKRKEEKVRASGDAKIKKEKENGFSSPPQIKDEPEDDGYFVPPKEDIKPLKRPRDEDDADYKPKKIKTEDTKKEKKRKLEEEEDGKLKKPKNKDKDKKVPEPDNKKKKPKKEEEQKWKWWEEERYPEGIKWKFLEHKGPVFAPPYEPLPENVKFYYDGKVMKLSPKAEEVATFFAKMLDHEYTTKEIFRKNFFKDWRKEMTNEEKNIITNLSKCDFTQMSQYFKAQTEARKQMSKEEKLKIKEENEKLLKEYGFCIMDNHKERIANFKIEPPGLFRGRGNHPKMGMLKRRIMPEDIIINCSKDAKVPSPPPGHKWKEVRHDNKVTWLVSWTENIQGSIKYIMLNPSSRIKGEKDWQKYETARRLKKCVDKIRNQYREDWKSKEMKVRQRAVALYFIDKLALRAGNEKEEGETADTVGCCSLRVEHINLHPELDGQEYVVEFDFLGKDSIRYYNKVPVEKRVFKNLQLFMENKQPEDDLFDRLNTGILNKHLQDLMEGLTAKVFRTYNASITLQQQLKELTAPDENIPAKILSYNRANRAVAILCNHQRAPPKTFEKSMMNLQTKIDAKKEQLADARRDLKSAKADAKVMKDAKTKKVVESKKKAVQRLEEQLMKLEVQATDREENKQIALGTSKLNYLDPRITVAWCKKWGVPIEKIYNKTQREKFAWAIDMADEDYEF
Briefly: Inhibition of Topoisomerase I (unknown origin) using pBR322 DNA as substrate at 1 uM incubated for 15 mins by EtBr staining based agarose gel electrophoresis method.

Assay [2] deals with NCI-H446. Briefly: Antitumor activity against human NCI-H446 cells xenografted with BALB/c mouse assessed as tumor growth inhibition by measuring T/C ratio at 50 mg/kg,po administrated once daily for 21 days. It is filed as functional. The settings on record: time 21 day.
In assay [3] the target is T1, DNA topoisomerase 1 (Homo sapiens). Briefly: Inhibition of Topoisomerase I (unknown origin) using pBR322 DNA as substrate at 2 uM incubated for 15 mins by EtBr staining based agarose gel electrophoresis method.
The test system of assay [4] is NCI-H446. Briefly: Antitumor activity against human NCI-H446 cells xenografted with BALB/c mouse assessed as tumor growth inhibition by measuring T/C ratio at 100 mg/kg,po administrated once daily for 21 days. It is filed as functional. The settings on record: time 21 day.
For assay [5], the target named is T1, DNA topoisomerase 1 (Homo sapiens). Briefly: Inhibition of Topoisomerase I (unknown origin) using pBR322 DNA as substrate at 5 uM incubated for 15 mins by EtBr staining based agarose gel electrophoresis method.
A further assay concerns HCT-116. The assay can be described thus: Antitumor activity against human HCT-116 cells xenografted with BALB/c mouse assessed as tumor growth inhibition at 100 mg/kg,po administrated once daily for 21 days relative to control. Type of assay: functional. The settings on record: HCT-116, 504 h, time 21 day, read-out: TGI.

In the case of `CN(C)CCCn1c2cc3c(cc2c2ncc4ccccc4c21)OCO3`, the inhibition entry in assay [1], in assay [3] and in assay [5] was “Active” throughout. Also, the results for the T/C in the assay with NCI-H446 [2] and in the assay on NCI-H446 [4] were 52.3% and 35.2%, respectively. Moreover, in the assay with HCT-116, the inhibition in vivo at 100 mg/kg was found to be 77.4%.
